Measurements from ChEMBL document CHEMBL1153197, “Synthetic studies and pharmacological evaluations on the MDMA ('Ecstasy') antagonist nantenine” (Bioorg Med Chem Lett, 2010).
Activity calls are given as the source filed them. The rule behind the calls is not given here.

Experiments:
[1] = target: 5-hydroxytryptamine receptor 1B (Homo sapiens, UniProt P28222); assay: Displacement of [3H]GR127543 from human 5HT1B receptor
[2] = target: 5-hydroxytryptamine receptor 1D (Homo sapiens, UniProt P28221); assay: Displacement of [3H]GR127543 from human 5HT1D receptor
[3] = target: 5-hydroxytryptamine receptor 1E (Homo sapiens, UniProt P28566); assay: Displacement of [3H]5-HT from human 5HT1E receptor
[4] = target: 5-hydroxytryptamine receptor 2A (Homo sapiens, UniProt P28223); assay: Displacement of [3H]Ketanserin from human 5HT2A receptor
Sequence of 5-hydroxytryptamine receptor 2A (P28223 whole entry): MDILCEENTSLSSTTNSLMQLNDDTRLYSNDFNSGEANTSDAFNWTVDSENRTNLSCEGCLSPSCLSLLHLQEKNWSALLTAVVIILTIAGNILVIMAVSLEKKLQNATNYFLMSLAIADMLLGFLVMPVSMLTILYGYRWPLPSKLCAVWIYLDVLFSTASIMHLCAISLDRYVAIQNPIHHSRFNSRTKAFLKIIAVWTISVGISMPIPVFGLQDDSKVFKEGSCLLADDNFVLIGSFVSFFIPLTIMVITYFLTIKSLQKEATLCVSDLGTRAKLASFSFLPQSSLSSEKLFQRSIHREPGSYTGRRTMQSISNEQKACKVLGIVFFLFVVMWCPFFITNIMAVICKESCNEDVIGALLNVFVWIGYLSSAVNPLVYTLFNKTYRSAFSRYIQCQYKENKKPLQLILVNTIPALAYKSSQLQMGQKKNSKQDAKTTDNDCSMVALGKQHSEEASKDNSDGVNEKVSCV

[5] = target: 5-hydroxytryptamine receptor 2B (Homo sapiens, UniProt P41595); assay: Displacement of [3H]LSD from human 5HT2B receptor
[6] = target: 5-hydroxytryptamine receptor 2C (Homo sapiens, UniProt P28335); assay: Displacement of [3H]Mesulergine from human 5HT2C receptor
[7] = target: 5-hydroxytryptamine receptor 3A (Homo sapiens, UniProt P46098); assay: Displacement of [3H]LY278584 from human 5HT3 receptor
[8] = target: 5-hydroxytryptamine receptor 5A (Homo sapiens, UniProt P47898); assay: Displacement of [3H]LSD from human 5HT5A receptor
[9] = target: 5-hydroxytryptamine receptor 6 (Homo sapiens, UniProt P50406); assay: Displacement of [3H]LSD from human 5HT6 receptor
[10] = target: 5-hydroxytryptamine receptor 7 (Homo sapiens, UniProt P34969); assay: Displacement of [3H]LSD from human 5HT7 receptor
[11] = target: Alpha-1A adrenergic receptor (Homo sapiens, UniProt P35348); assay: Displacement of [3H]Prazosin from human adrenergic alpha1A receptor
Sequence of Alpha-1A adrenergic receptor (P35348 whole entry): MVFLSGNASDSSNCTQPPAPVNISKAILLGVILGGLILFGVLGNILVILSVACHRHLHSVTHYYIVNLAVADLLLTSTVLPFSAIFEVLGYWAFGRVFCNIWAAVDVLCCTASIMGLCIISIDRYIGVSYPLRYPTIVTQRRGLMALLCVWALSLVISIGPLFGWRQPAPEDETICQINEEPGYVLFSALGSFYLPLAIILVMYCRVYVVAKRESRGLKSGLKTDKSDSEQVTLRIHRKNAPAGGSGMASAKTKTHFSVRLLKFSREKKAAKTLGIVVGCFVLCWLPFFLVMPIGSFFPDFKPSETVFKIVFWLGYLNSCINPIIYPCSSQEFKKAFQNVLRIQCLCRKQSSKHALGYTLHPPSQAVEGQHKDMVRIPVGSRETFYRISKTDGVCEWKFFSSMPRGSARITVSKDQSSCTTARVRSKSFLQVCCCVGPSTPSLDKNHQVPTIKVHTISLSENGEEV

[12] = target: Alpha-1B adrenergic receptor (Homo sapiens, UniProt P35368); assay: Displacement of [3H]Prazosin from human adrenergic Alpha-1B receptor
[13] = target: Alpha-1D adrenergic receptor (Homo sapiens, UniProt P25100); assay: Binding affinity to human adrenergic Alpha-1D receptor
[14] = target: Alpha-2A adrenergic receptor (Homo sapiens, UniProt P08913); assay: Displacement of [3H]Clonidine from human adrenergic alpha2A receptor
Sequence of Alpha-2A adrenergic receptor (P08913 whole entry): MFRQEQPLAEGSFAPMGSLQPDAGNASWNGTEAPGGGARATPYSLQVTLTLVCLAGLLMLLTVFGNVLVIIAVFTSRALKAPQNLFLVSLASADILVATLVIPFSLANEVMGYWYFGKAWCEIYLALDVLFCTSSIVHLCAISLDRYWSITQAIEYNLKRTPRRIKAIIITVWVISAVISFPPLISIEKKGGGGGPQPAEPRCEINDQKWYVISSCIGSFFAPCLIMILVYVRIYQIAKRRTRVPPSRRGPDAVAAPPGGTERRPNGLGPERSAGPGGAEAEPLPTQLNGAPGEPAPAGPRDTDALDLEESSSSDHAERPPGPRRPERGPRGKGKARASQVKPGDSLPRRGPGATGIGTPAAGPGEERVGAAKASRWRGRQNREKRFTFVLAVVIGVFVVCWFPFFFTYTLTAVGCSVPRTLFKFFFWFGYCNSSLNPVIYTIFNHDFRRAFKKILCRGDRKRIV

[15] = target: Alpha-2B adrenergic receptor (Homo sapiens, UniProt P18089); assay: Displacement of [3H]Clonidine from human adrenergic alpha2B receptor
Sequence of Alpha-2B adrenergic receptor (P18089 whole entry): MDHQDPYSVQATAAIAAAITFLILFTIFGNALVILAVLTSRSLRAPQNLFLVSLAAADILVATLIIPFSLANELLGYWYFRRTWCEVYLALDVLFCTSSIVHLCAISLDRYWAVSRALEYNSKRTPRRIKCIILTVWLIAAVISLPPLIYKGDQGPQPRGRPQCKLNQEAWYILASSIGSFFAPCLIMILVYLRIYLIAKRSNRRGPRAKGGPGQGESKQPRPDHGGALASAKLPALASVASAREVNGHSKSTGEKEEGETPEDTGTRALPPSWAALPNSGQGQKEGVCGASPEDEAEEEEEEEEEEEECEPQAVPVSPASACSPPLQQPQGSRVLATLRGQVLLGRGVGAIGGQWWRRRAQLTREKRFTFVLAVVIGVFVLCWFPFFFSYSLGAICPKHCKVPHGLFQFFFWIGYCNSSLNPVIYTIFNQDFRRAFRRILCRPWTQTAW

[16] = target: Alpha-2C adrenergic receptor (Homo sapiens, UniProt P18825); assay: Displacement of [3H]Clonidine from human adrenergic Alpha-2C receptor
Sequence of Alpha-2C adrenergic receptor (P18825 whole entry): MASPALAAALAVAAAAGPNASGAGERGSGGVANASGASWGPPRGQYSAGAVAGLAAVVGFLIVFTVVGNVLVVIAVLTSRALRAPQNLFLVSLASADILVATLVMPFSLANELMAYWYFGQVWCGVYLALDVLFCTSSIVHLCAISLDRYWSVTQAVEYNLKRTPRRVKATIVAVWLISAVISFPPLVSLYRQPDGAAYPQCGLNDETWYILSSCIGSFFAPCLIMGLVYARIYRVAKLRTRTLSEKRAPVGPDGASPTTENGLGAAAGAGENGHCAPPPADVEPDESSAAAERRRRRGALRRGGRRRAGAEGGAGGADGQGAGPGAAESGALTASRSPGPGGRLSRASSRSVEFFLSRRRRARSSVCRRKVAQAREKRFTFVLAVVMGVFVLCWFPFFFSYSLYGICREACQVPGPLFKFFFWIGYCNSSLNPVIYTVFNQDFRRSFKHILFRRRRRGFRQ

[17] = target: Beta-1 adrenergic receptor (Homo sapiens, UniProt P08588); assay: Displacement of [125I]Iodopindolol from human adrenergic beta-1 receptor
[18] = target: Beta-2 adrenergic receptor (Homo sapiens, UniProt P07550); assay: Displacement of [125I]Iodopindolol from human adrenergic beta2 receptor
[19] = target: Beta-3 adrenergic receptor (Homo sapiens, UniProt P13945); assay: Displacement of [125I]Iodopindolol from human adrenergic beta3 receptor
Sequence of Beta-3 adrenergic receptor (P13945 whole entry): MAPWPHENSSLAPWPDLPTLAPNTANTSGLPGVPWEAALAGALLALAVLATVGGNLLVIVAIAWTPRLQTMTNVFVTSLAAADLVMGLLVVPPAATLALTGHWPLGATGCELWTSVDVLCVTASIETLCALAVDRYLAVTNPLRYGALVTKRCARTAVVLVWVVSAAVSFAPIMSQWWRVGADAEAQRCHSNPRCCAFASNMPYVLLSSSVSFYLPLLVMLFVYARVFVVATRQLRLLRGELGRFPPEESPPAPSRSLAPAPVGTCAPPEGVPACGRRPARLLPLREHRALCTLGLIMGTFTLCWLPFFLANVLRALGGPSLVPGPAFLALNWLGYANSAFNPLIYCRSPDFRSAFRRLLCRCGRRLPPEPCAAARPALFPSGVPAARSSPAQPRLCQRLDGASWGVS

[20] = target: D(1A) dopamine receptor (Homo sapiens, UniProt P21728); assay: Displacement of [3H]SCH233930 from human dopamine D1 receptor
[21] = target: D(2) dopamine receptor (Homo sapiens, UniProt P14416); assay: Displacement of [3H]N-methylspiperone from human dopamine D2 receptor
[22] = target: D(3) dopamine receptor (Homo sapiens, UniProt P35462); assay: Displacement of [3H]N-methylspiperone from human dopamine D3 receptor
[23] = target: D(4) dopamine receptor (Homo sapiens, UniProt P21917); assay: Displacement of [3H]N-methylspiperone from human dopamine D4 receptor
[24] = target: D(1B) dopamine receptor (Homo sapiens, UniProt P21918); assay: Displacement of [3H]SCH233930 from human dopamine D5 receptor
Sequence of D(1B) dopamine receptor (P21918 whole entry): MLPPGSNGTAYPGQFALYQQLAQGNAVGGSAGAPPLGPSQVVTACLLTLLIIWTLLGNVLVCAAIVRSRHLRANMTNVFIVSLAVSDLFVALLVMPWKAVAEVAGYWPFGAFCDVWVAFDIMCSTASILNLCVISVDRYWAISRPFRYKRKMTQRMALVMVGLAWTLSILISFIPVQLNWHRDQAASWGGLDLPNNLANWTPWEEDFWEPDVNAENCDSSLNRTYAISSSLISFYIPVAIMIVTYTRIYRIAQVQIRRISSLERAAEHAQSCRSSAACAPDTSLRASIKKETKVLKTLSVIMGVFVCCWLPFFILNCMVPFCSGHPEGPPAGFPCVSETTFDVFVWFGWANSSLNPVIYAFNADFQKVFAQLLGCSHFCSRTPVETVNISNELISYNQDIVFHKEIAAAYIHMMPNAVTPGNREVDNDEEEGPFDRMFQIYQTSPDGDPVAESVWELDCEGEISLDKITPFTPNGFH

[25] = target: Sodium-dependent dopamine transporter (Homo sapiens, UniProt Q01959); assay: Displacement of [3H]WIN-35428 from human DAT
[26] = target: Sodium-dependent serotonin transporter (Homo sapiens, UniProt P31645); assay: Displacement of [3H]Citalopram from human SERT
[27] = target: Sodium-dependent noradrenaline transporter (Homo sapiens, UniProt P23975); assay: Displacement of [3H]Nisoxetine from human NET
Sequence of Sodium-dependent noradrenaline transporter (P23975 whole entry): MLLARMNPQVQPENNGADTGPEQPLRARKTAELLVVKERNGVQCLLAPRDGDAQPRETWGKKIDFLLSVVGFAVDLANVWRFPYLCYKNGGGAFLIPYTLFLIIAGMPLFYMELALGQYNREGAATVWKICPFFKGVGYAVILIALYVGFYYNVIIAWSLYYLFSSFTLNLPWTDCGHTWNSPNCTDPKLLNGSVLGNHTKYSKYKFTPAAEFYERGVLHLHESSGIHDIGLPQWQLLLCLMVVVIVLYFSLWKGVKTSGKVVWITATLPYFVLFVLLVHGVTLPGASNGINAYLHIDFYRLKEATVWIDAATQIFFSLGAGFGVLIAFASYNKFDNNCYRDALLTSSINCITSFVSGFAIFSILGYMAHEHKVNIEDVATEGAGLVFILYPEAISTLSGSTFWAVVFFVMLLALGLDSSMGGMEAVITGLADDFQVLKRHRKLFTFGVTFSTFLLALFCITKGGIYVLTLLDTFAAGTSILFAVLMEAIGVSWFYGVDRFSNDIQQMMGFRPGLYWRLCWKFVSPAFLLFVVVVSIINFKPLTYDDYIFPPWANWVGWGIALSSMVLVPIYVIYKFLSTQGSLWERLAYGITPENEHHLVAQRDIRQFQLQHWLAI

[28] = target: Delta-type opioid receptor (Homo sapiens, UniProt P41143); assay: Displacement of [3H]DADLE from human DOR
[29] = target: Kappa-type opioid receptor (Homo sapiens, UniProt P41145); assay: Displacement of [3H]U69593 from human KOR
[30] = target: Mu-type opioid receptor (Homo sapiens, UniProt P35372); assay: Displacement of [3H]DAMGO from human MOR
[31] = target: Histamine H1 receptor (Homo sapiens, UniProt P35367); assay: Displacement of [3H]Pyrilamine from human histamine H1 receptor
[32] = target: Histamine H2 receptor (Homo sapiens, UniProt P25021); assay: Displacement of [3H]Tiotidine from human histamine H2 receptor
[33] = target: Histamine H3 receptor (Homo sapiens, UniProt Q9Y5N1); assay: Displacement of [3H]alpha-methylhistamine from human histamine H3 receptor
Sequence of Histamine H3 receptor (Q9Y5N1 whole entry): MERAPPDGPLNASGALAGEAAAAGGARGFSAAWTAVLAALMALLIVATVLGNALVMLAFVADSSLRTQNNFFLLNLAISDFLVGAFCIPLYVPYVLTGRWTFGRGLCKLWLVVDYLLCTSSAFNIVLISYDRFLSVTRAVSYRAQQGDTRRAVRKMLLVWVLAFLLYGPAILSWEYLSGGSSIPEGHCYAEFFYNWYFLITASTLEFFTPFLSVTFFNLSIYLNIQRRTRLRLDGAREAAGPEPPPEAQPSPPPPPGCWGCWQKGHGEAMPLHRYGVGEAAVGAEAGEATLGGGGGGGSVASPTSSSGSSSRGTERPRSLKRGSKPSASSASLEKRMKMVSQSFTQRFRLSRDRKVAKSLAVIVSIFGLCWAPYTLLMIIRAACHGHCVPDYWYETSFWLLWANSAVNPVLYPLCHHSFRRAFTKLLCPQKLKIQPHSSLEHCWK

[34] = target: Histamine H4 receptor (Homo sapiens, UniProt Q9H3N8); assay: Displacement of [3H]Histamine from human histamine H4 receptor
[35] = target: Muscarinic acetylcholine receptor M1 (Homo sapiens, UniProt P11229); assay: Displacement of [3H]QNB from human muscarinic M1 receptor
[36] = target: Muscarinic acetylcholine receptor M2 (Homo sapiens, UniProt P08172); assay: Displacement of [3H]QNB from human muscarinic M2 receptor
Sequence of Muscarinic acetylcholine receptor M2 (P08172 whole entry): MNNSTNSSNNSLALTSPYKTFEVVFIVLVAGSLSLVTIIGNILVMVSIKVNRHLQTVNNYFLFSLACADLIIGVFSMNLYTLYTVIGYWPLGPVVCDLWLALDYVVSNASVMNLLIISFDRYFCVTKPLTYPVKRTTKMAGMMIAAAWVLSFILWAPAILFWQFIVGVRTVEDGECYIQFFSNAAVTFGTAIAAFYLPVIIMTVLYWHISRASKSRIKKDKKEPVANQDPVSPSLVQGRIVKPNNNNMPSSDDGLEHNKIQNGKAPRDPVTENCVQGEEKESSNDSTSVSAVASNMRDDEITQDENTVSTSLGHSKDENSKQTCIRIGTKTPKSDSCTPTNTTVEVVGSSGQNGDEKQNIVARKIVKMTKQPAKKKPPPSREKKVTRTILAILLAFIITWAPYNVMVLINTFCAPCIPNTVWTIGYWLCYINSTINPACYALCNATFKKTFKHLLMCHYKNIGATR

[37] = target: Muscarinic acetylcholine receptor M3 (Homo sapiens, UniProt P20309); assay: Displacement of [3H]QNB from human muscarinic M3 receptor
[38] = target: Muscarinic acetylcholine receptor M4 (Homo sapiens, UniProt P08173); assay: Displacement of [3H]QNB from human muscarinic M4 receptor
[39] = Displacement of [3H]DTG from human sigma 2 receptor
[40] = system: Rattus norvegicus; assay: Inhibition of MDMA-induced behavioral suppression in rat assessed as earning of 20 food pellets at 0.3 mg/kg, ip administered 15 mins before MDMA challenge by food-reinforced operant task method; assay type: functional, organism-based; set-up: dose 0.3 mg/kg
[41] = system: Rattus norvegicus; assay: Toxicity in rat at 1 mg/kg, ip after 15 mins; assay type: organism-based; set-up: dose 1 mg/kg, route intraperitoneal; conditions: in vivo, 0.25 h
[42] = system: Rattus norvegicus; assay: Inhibition of MDMA-induced behavioral suppression in rat assessed as earning of 20 food pellets at 0.1 mg/kg, ip administered 15 mins before MDMA challenge by food-reinforced operant task method; assay type: functional, organism-based; set-up: dose 0.1 mg/kg

COc1cc2c3c(c1OC)-c1cc4c(cc1CC3N(C)CC2)OCO4 (racemic) [NANTENINE]
Ki [1]: 100 nM | Ki [2]: 49 nM | Ki [3]: > 10000 nM | Ki [4]: 832 nM | Ki [5]: 543 nM | Ki [6]: 1070 nM | Ki [7]: > 10000 nM | Ki [8]: 2220 nM | Ki [9]: 257 nM | Ki [10]: 67 nM | Ki [11]: 2 nM | Ki [12]: 1190 nM | Ki [13]: 340 nM | Ki [14]: 1290 nM | Ki [15]: 252 nM | Ki [16]: 181 nM | Ki [17]: 8570 nM | Ki [18]: > 10000 nM | Ki [19]: > 10000 nM | Ki [20]: 895 nM | Ki [21]: 858 nM | Ki [22]: 309 nM | Ki [23]: 262 nM | Ki [24]: 2400 nM | Ki [25]: > 10000 nM | Ki [26]: 244 nM | Ki [27]: > 10000 nM | Ki [28]: > 10000 nM | Ki [29]: > 10000 nM | Ki [30]: 7260 nM | Ki [31]: > 10000 nM | Ki [32]: 672 nM | Ki [33]: > 10000 nM | Ki [34]: > 10000 nM | Ki [35]: > 10000 nM | Ki [36]: > 10000 nM | Ki [37]: > 10000 nM | Ki [38]: > 10000 nM | Ki [39]: > 10000 nM

O=C(c1ccc(F)cc1)C1CCN(CCn2c(=O)[nH]c3ccccc3c2=O)CC1 [KETANSERIN]
Activity [40]: Active | Activity [41]: Toxic | Activity [42]: Active
